From ChEMBL document CHEMBL1137636, “Genetic characteristics and clonal dissemination of beta-lactamase-negative ampicillin-resistant Haemophilus influenzae strains isolated from the upper respiratory tract of patients in Japan” (2007)
≈ marks a conversion by molar mass, not a printed value.

Experiments:
Assay type in all cases: functional
Haemophilus influenzae [1] = assay: Antibacterial activity against beta-lactamase-negative ampicillin-resistant Haemophilus influenzae by Etest
Haemophilus influenzae [2] = assay: Antibacterial activity against beta-lactamase-negative ampicillin-resistant Haemophilus influenzae with mutation in AcrAB repressor gene […]
Haemophilus influenzae [3] = assay: Antibacterial activity against genetically […] but without an amino acid substitution in ftsI gene assessed as susceptibility rate by broth microdilution method
Haemophilus influenzae [4] = assay: Antibacterial activity against genetically beta-lactamase-positive amoxicillin-clavulanate-resistant Haemophilus influenzae type b with an amino acid substitution in highly mutated locus Ser-385 of ftsI gene assessed as susceptibility rate by broth microdilution method
Haemophilus influenzae [5] = assay: Antibacterial activity against genetically beta-lactamase-negative ampicillin-resistant Haemophilus influenzae type b with an amino acid substitution in variable mutated locus Asn-526 or Arg-517 of ftsI gene assessed as susceptibility rate by broth microdilution method
Haemophilus influenzae [6] = assay: Antibacterial activity against genetically beta-lactamase-negative ampicillin-susceptible Haemophilus influenzae type b without amino acid substitutions in ftsI gene and bla gene assessed as susceptibility rate by broth microdilution method
Haemophilus influenzae [7] = assay: Antibacterial activity against genetically beta-lactamase-negative ampicillin-susceptible Haemophilus influenzae type b without amino acid substitutions in ftsI gene and bla gene assessed as resistance rate by broth microdilution method
Haemophilus influenzae [8] = assay: Antibacterial activity against genetically beta-lactamase-negative ampicillin-resistant Haemophilus influenzae type b with an amino acid substitution in highly mutated locus Ser-385 of ftsI gene by broth microdilution method
Haemophilus influenzae [9] = assay: Antibacterial activity against genetically beta-lactamase-negative ampicillin-susceptible Haemophilus influenzae type b without amino acid substitutions in ftsI gene and bla gene by broth microdilution method
Haemophilus influenzae [10] = assay: Antibacterial activity against genetically beta-lactamase-negative ampicillin-resistant Haemophilus influenzae type b with an amino acid substitution in highly mutated locus Ser-385 of ftsI gene assessed as resistance rate by broth microdilution method
Haemophilus influenzae [11] = assay: Antibacterial activity against genetically beta-lactamase-positive amoxicillin-clavulanate-resistant Haemophilus influenzae type b with an amino acid substitution in variable mutated locus Asn-526 or Arg-517 of ftsI gene by broth microdilution method
Haemophilus influenzae [12] = assay: Antibacterial activity against genetically beta-lactamase-positive amoxicillin-clavulanate-resistant Haemophilus influenzae type b with an amino acid substitution in highly mutated locus Ser-385 of ftsI gene assessed as resistance rate by broth microdilution method
Haemophilus influenzae [13] = assay: Antibacterial activity against genetically beta-lactamase-positive amoxicillin-clavulanate-resistant Haemophilus influenzae type b with an amino acid substitution in highly mutated locus Ser-385 of ftsI gene by broth microdilution method
Haemophilus influenzae [14] = assay: Antibacterial activity against genetically […] but without an amino acid substitution in ftsI gene by broth microdilution method
Haemophilus influenzae [15] = assay: Antibacterial activity against genetically beta-lactamase-positive amoxicillin-clavulanate-resistant Haemophilus influenzae type b with an amino acid substitution in variable mutated locus Asn-526 or Arg-517 of ftsI gene assessed as resistance rate by broth microdilution method
Haemophilus influenzae [16] = assay: Antibacterial activity against genetically […] but without an amino acid substitution in ftsI gene assessed as resistance rate by broth microdilution method
Haemophilus influenzae [17] = assay: Antibacterial activity against genetically beta-lactamase-negative ampicillin-resistant Haemophilus influenzae type b with an amino acid substitution in variable mutated locus Asn-526 or Arg-517 of ftsI gene assessed as resistance rate by broth microdilution method
Haemophilus influenzae [18] = assay: Antibacterial activity against genetically beta-lactamase-negative ampicillin-resistant Haemophilus influenzae type b with an amino acid substitution in variable mutated locus Asn-526 or Arg-517 of ftsI gene by broth microdilution method
Haemophilus influenzae [19] = assay: Antibacterial activity against genetically beta-lactamase-negative ampicillin-resistant Haemophilus influenzae type b with an amino acid substitution in highly mutated locus Ser-385 of ftsI gene assessed as susceptibility rate by broth microdilution method
Haemophilus influenzae [20] = assay: Antibacterial activity against genetically beta-lactamase-positive amoxicillin-clavulanate-resistant Haemophilus influenzae type b with an amino acid substitution in variable mutated locus Asn-526 or Arg-517 of ftsI gene assessed as susceptibility rate by broth microdilution method

Row | SMILES | Activity (Haemophilus influenzae [5]) [%] | Activity (Haemophilus influenzae [6]) [%] | Activity (Haemophilus influenzae [7]) [%] | MIC50 (Haemophilus influenzae [8]) [µg/mL] | MIC90 (Haemophilus influenzae [8]) [µg/mL] | MIC50 (Haemophilus influenzae [9]) [µg/mL] | MIC90 (Haemophilus influenzae [9]) [µg/mL] | Activity (Haemophilus influenzae [10]) [%] | Activity (Haemophilus influenzae [17]) [%] | MIC50 (Haemophilus influenzae [18]) [µg/mL] | MIC90 (Haemophilus influenzae [18]) [µg/mL] | Activity (Haemophilus influenzae [19]) [%] | further results
1 | CC1(C)S[C@@H]2[C@H](NC(=O)[C@H](N)c3ccccc3)C(=O)N2[C@H]1C(=O)O [AMPICILLIN] | 68.4 | 100 | 0 | 4 (≈ 11.4 µM) | 16 (≈ 45.8 µM) | 0.5 (≈ 1.43 µM) | 0.5 (≈ 1.43 µM) | 71.6 | 8.1 | 0.5 (≈ 1.43 µM) | 2 (≈ 5.72 µM) | 9.5 | MIC (Haemophilus influenzae [1]): 256 µg/mL (≈ 733 µM); MIC (Haemophilus influenzae [2]): 8 µg/mL (≈ 22.9 µM); Activity (Haemophilus influenzae [3]): 0%; Activity (Haemophilus influenzae [4]): 0%; MIC50 (Haemophilus influenzae [11]): 128 µg/mL; MIC90 (Haemophilus influenzae [11]): 128 µg/mL; Activity (Haemophilus influenzae [12]): 100%; MIC50 (Haemophilus influenzae [13]): > 128 µg/mL; MIC90 (Haemophilus influenzae [13]): > 128 µg/mL; MIC50 (Haemophilus influenzae [14]): 64 µg/mL (≈ 183 µM); MIC90 (Haemophilus influenzae [14]): > 128 µg/mL; Activity (Haemophilus influenzae [15]): 100%; Activity (Haemophilus influenzae [16]): 100%; Activity (Haemophilus influenzae [20]): 0%
2 | CC[C@H]1OC(=O)[C@H](C)[C@@H](O[C@H]2C[C@@](C)(OC)[C@@H](O)[C@H](C)O2)[C@H](C)[C@@H](O[C@@H]2O[C@H](C)C[C@H](N(C)C)[C@H]2O)[C@](C)(O)C[C@@H](C)CN(C)[C@H](C)[C@@H](O)[C@]1(C)O [AZITHROMYCIN] | 95.9 | 98.8 | 1.2 | 2 (≈ 2.67 µM) | 4 (≈ 5.34 µM) | 2 (≈ 2.67 µM) | 4 (≈ 5.34 µM) | 2.7 | 4.1 | 2 (≈ 2.67 µM) | 4 (≈ 5.34 µM) | 97.3 | –
3 | CO/N=C(\C(=O)N[C@@H]1C(=O)N2C(C(=O)OCOC(=O)C(C)(C)C)=C(/C=C\c3scnc3C)CS[C@H]12)c1csc(N)n1 [CEFDITOREN PIVOXIL] | – | – | – | 0.25 (≈ 0.403 µM) | 0.5 (≈ 0.805 µM) | ≤ 0.06 | ≤ 0.06 | – | – | ≤ 0.06 | 0.12 (≈ 0.193 µM) | – | –
4 | COCC1=C(C(=O)O)N2C(=O)[C@@H](NC(=O)/C(=N\OC)c3csc(N)n3)[C@H]2SC1 [CEFPODOXIME] | 90.8 | 100 | 0 | 8 (≈ 18.7 µM) | 16 (≈ 37.4 µM) | 0.12 (≈ 0.281 µM) | 0.12 (≈ 0.281 µM) | 91.9 | 9.2 | 0.25 (≈ 0.585 µM) | 2 (≈ 4.68 µM) | 9.1 | –
5 | CO/N=C(\C(=O)N[C@@H]1C(=O)N2C(C(=O)O)=C(COC(N)=O)CS[C@H]12)c1ccco1 [CEFUROXIME] | 66.3 | 97.7 | 1.2 | 64 (≈ 151 µM) | 128 (≈ 302 µM) | 1 (≈ 2.36 µM) | 2 (≈ 4.71 µM) | 94.6 | 21.4 | 2 (≈ 4.71 µM) | 16 (≈ 37.7 µM) | 1.4 | –
6 | CC[C@H]1OC(=O)[C@H](C)[C@@H](O[C@H]2C[C@@](C)(OC)[C@@H](O)[C@H](C)O2)[C@H](C)[C@@H](O[C@@H]2O[C@H](C)C[C@H](N(C)C)[C@H]2O)[C@](C)(OC)C[C@@H](C)C(=O)[C@H](C)[C@@H](O)[C@]1(C)O [CLARITHROMYCIN] | 75.5 | 79.3 | 3.5 | 8 (≈ 10.7 µM) | 16 (≈ 21.4 µM) | 8 (≈ 10.7 µM) | 16 (≈ 21.4 µM) | 0 | 2 | 8 (≈ 10.7 µM) | 16 (≈ 21.4 µM) | 60.8 | –
7 | C[C@H]1COc2c(N3CCN(C)CC3)c(F)cc3c(=O)c(C(=O)O)cn1c23.C[C@H]1COc2c(N3CCN(C)CC3)c(F)cc3c(=O)c(C(=O)O)cn1c23.O [LEVOFLOXACIN] | 100 | 100 | 0 | ≤ 0.06 | ≤ 0.06 | ≤ 0.06 | ≤ 0.06 | 0 | 0 | ≤ 0.06 | ≤ 0.06 | 100 | –
8 | C[C@@H](O)[C@H]1C(=O)N2C(C(=O)O)=C(S[C@@H]3CN[C@H](C(=O)N(C)C)C3)[C@H](C)[C@H]12 [MEROPENEM] | 100 | 100 | 0 | 0.25 (≈ 0.652 µM) | 0.5 (≈ 1.3 µM) | ≤ 0.06 | ≤ 0.06 | 9.5 | 0 | 0.12 (≈ 0.313 µM) | 0.25 (≈ 0.652 µM) | 90.5 | –
9 | CC[C@H]1OC(=O)[C@H](C)C(=O)[C@H](C)[C@@H](O[C@@H]2O[C@H](C)C[C@H](N(C)C)[C@H]2O)[C@](C)(OC)C[C@@H](C)C(=O)[C@H](C)[C@H]2N(CCCCn3cnc(-c4cccnc4)c3)C(=O)O[C@]12C [TELITHROMYCIN] | 93.9 | 97.7 | 0 | 2 (≈ 2.46 µM) | 4 (≈ 4.93 µM) | 2 (≈ 2.46 µM) | 4 (≈ 4.93 µM) | 0 | 0 | 2 (≈ 2.46 µM) | 4 (≈ 4.93 µM) | 87.8 | –
